Source: PubChem BioAssay AID200 (DTP/NCI, 2004)
Where “and” joins values, the source holds several entries; their conditions need not be identical. Identical values can stand only once. Inconclusive results and toxic doses are left out. Rule for the calls: active = survival T/C of 150% or more; inactive = T/C below 125% in these data. Where a SMILES comes first, the peptide text is derived from it. [ ]: non-standard residue; d: D form. The star is where a group is joined. Cbz = O=C(OCc1ccccc1)*; Nva = CCC[CH](N)C(=O)O; For = O=C*

Tested on: B6C3F1 mice, B16 melanoma ip, median survival T/C
Assay: NCI In Vivo Anticancer Drug Screen. Data for tumor model B16 Melanoma (intraperitoneal) in B6C3F1 mice
Conditions: endpoint: median survival time, higher = longer survival
Summary of the method: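 Transplantable tumor in mice; treated vs vehicle control groups; survival or tumor size measured; value = T/C ratio.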

[1] = dose: 3.12 mg/kg/injection, schedule: Q01DX009 (ip), vehicle: saline
[2] = dose: 6.25 mg/kg/injection, schedule: Q01DX009 (ip), vehicle: saline
[3] = dose: 12.5 mg/kg/injection, schedule: Q01DX009 (ip), vehicle: saline
[4] = dose: 25.0 mg/kg/injection, schedule: Q01DX009 (ip), vehicle: saline
[5] = dose: 50.0 mg/kg/injection, schedule: Q01DX009 (ip), vehicle: saline
[6] = dose: 25.0 mg/kg/injection, schedule: Q01DX009 (ip), vehicle: Klucel (hydroxypropylcellulose) (HPC)
[7] = dose: 50.0 mg/kg/injection, schedule: Q01DX009 (ip), vehicle: Klucel (hydroxypropylcellulose) (HPC)
[8] = dose: 100.0 mg/kg/injection, schedule: Q01DX009 (ip), vehicle: Klucel (hydroxypropylcellulose) (HPC)
[9] = dose: 200.0 mg/kg/injection, schedule: Q01DX009 (ip), vehicle: Klucel (hydroxypropylcellulose) (HPC)
[10] = dose: 400.0 mg/kg/injection, schedule: Q01DX009 (ip), vehicle: Klucel (hydroxypropylcellulose) (HPC)
[11] = dose: 12.5 mg/kg/injection, schedule: Q01DX009 (ip), vehicle: Klucel (hydroxypropylcellulose) (HPC)
[12] = dose: 12.5 mg/kg/injection, schedule: Q01DX009 (ip), vehicle: saline with Tween-80
[13] = dose: 25.0 mg/kg/injection, schedule: Q01DX009 (ip), vehicle: saline with Tween-80
[14] = dose: 50.0 mg/kg/injection, schedule: Q01DX009 (ip), vehicle: saline with Tween-80
[15] = dose: 100.0 mg/kg/injection, schedule: Q01DX009 (ip), vehicle: saline with Tween-80
[16] = dose: 200.0 mg/kg/injection, schedule: Q01DX009 (ip), vehicle: saline with Tween-80
[17] = dose: 3.12 mg/kg/injection, schedule: Q01DX009 (ip), vehicle: Klucel (hydroxypropylcellulose) (HPC)

Measured: T/C

O=C1C(CO)=C[C@@H](O)[C@H]2O[C@@H]12
inactive: [1] 88 % of control | [2] 98 % of control | [3] 100 % of control | [4] 96 % of control | [5] 106 % of control

CSCCC(NC=O)C(=O)NC(C(=O)O)C(C)C (stereo not drawn) (For-Met-Val-OH; configuration not given here)
inactive: [6] 101 % of control | [7] 101 % of control | [8] 107 % of control | [9] 105 % of control | [10] 98 % of control

Cc1cc2c(cc1C)C(=O)c1c(O)c3c(c(O)c1C2=O)C[C@@](O)(C(=O)CO)C[C@@H]3OC1CC(N)C(O)C(C)O1 (some centres undefined)
active: dose: 2.5 mg/kg/injection, schedule: Q01DX001 (ip), vehicle: water 193 % of control | dose: 5.0 mg/kg/injection, schedule: Q01DX001 (ip), vehicle: water 162 % of control and 193 % of control | dose: 10.0 mg/kg/injection, schedule: Q01DX001 (ip), vehicle: water 213 % of control and 236 % of control | dose: 20.0 mg/kg/injection, schedule: Q01DX001 (ip), vehicle: water 155 % of control and 240 % of control

COc1cc(OC)c(OC)cc1/C=C\c1ccnc2ccccc12
inactive: [11] 98 % of control | [6] 105 % of control | [7] 108 % of control and 111 % of control | [8] 120 % of control and 107 % of control | [9] 97 % of control
active: [10] 151 % of control

Cc1cc(O)c(O)c(Oc2cc(C)cc(O)c2O)c1
inactive: dose: 75.0 micrograms/kg/injection, schedule: Q01DX009 (ip), vehicle: saline 94 % of control | dose: 150.0 micrograms/kg/injection, schedule: Q01DX009 (ip), vehicle: saline 104 % of control | dose: 300.0 micrograms/kg/injection, schedule: Q01DX009 (ip), vehicle: saline 105 % of control

CCCC(NC(=O)OCc1ccccc1)C(=O)NC(CO)C(=O)O (centres undefined) (Cbz-[Nva]-Ser-OH; configuration not given here)
inactive: [8] 102 % of control | [9] 100 % of control | [10] 103 % of control

C[n+]1c(-c2cccc3ccccc23)c2cc(N)ccc2c2ccccc21
inactive: dose: 1.56 mg/kg/injection, schedule: Q01DX009 (ip), vehicle: saline 117 % of control | [1] 122 % of control | [2] 119 % of control

O=C(O)C1CC1.[Ag]
inactive: dose: 0.78 mg/kg/injection, schedule: Q01DX009 (ip), vehicle: water 99 % of control | dose: 1.56 mg/kg/injection, schedule: Q01DX009 (ip), vehicle: water 122 % of control | dose: 3.12 mg/kg/injection, schedule: Q01DX009 (ip), vehicle: water 100 % of control | dose: 6.25 mg/kg/injection, schedule: Q01DX009 (ip), vehicle: water 92 % of control

CS(=O)(=O)OCCn1c(=O)n(CCOS(C)(=O)=O)c(=O)n(CCOS(C)(=O)=O)c1=O
inactive: [8] 97 % of control | [9] 95 % of control | [10] 86 % of control

CC[C@H](CC[C@@H](C)C1CC[C@H]2[C@@H]3CC=C4C[C@@H](OP(=O)(N5CC5)N5CC5)CC[C@]4(C)[C@H]3CC[C@]12C)C(C)C (some centres undefined)
inactive: [12] 95 % of control and 99 % of control | [13] 110 % of control and 101 % of control | [14] 90 % of control and 97 % of control | [15] 91 % of control and 94 % of control | [16] 93 % of control and 95 % of control

CO[C@@]12[C@@H]3N[C@@H]3CN1C1=C(C(=O)C(NCc3ccco3)=C(C)C1=O)[C@@H]2COC(N)=O
active: dose: 4.5 mg/kg/injection, schedule: Q01DX001 (ip), vehicle: distilled water + Tween-80 170 % of control | dose: 9.0 mg/kg/injection, schedule: Q01DX001 (ip), vehicle: distilled water + Tween-80 186 % of control | dose: 18.0 mg/kg/injection, schedule: Q01DX001 (ip), vehicle: distilled water + Tween-80 219 % of control | dose: 36.0 mg/kg/injection, schedule: Q01DX001 (ip), vehicle: distilled water + Tween-80 247 % of control

c1cc(OCC2CO2)ccc1OCC1CO1 (centres undefined)
inactive: [11] 109 % of control | [6] 121 % of control and 103 % of control | [7] 105 % of control | [9] 117 % of control

NNC(=S)N/N=C/c1ccc([N+](=O)[O-])s1
inactive: dose: 0.78 mg/kg/injection, schedule: Q01DX009 (ip), vehicle: Klucel (hydroxypropylcellulose) (HPC) 105 % of control | dose: 1.56 mg/kg/injection, schedule: Q01DX009 (ip), vehicle: Klucel (hydroxypropylcellulose) (HPC) 99 % of control | [17] 104 % of control | dose: 6.25 mg/kg/injection, schedule: Q01DX009 (ip), vehicle: Klucel (hydroxypropylcellulose) (HPC) 104 % of control

Cc1nc(N)nc(N)c1-c1ccc(Cl)c(Cl)c1
inactive: dose: 0.31 mg/kg/injection, schedule: Q01DX009 (ip), vehicle: saline with Tween-80 102 % of control | dose: 0.62 mg/kg/injection, schedule: Q01DX009 (ip), vehicle: saline 116 % of control | dose: 0.63 mg/kg/injection, schedule: Q01DX009 (ip), vehicle: saline with Tween-80 104 % of control | dose: 1.25 mg/kg/injection, schedule: Q01DX009 (ip), vehicle: saline with Tween-80 102 % of control | dose: 1.25 mg/kg/injection, schedule: Q01DX009 (ip), vehicle: saline 101 % of control and 102 % of control | dose: 2.5 mg/kg/injection, schedule: Q01DX009 (ip), vehicle: saline with Tween-80 113 % of control | dose: 2.5 mg/kg/injection, schedule: Q01DX009 (ip), vehicle: saline 116 % of control

COCC(CN1CCN(c2ccccc2OC)CC1)OC (centres undefined)
inactive: [3] 100 % of control | [4] 99 % of control | [5] 105 % of control

CNC(=O)OCc1c(COC(=O)NC)c(C)n(-c2ccc(OC)cc2)c1C
inactive: [17] 112 % of control | [7] 111 % of control

CC1Oc2cc3c(-c4c(O)cc(O)c5c(O)c6c(cc45)OC(C)C(C)C6=O)c(O)cc(O)c3c(O)c2C(=O)C1C (centres undefined)
inactive: dose: 0.31 mg/kg/injection, schedule: Q01DX009 (ip), vehicle: suspension in saline 117 % of control | dose: 0.62 mg/kg/injection, schedule: Q01DX009 (ip), vehicle: suspension in saline 101 % of control | dose: 1.25 mg/kg/injection, schedule: Q01DX009 (ip), vehicle: suspension in saline 109 % of control | dose: 2.5 mg/kg/injection, schedule: Q01DX009 (ip), vehicle: suspension in saline 116 % of control

Cc1cc2c(c3oc(C4(C)OC4C4OC4C)cc(=O)c13)C(=O)c1c(O)c(C3CC(C)(N(C)C)C(O)C(C)O3)cc(C3CC(N(C)C)C(O)C(C)O3)c1C2=O (centres undefined)
inactive: dose: 2.0 micrograms/kg/injection, schedule: Q01DX009 (ip), vehicle: Klucel (hydroxypropylcellulose) (HPC) 123 % of control | dose: 4.0 micrograms/kg/injection, schedule: Q01DX009 (ip), vehicle: Klucel (hydroxypropylcellulose) (HPC) 118 % of control

CN1CCN(Cc2nc3cccc4c3c([n+]2[O-])-c2ccccc2-4)CC1
inactive: [12] 98 % of control | [13] 99 % of control | [14] 110 % of control | [15] 106 % of control | [16] 120 % of control

O=S(=O)(SC(S(=O)(=O)c1ccccc1)S(=O)(=O)c1ccccc1)c1ccccc1
inactive: [11] 109 % of control | [6] 115 % of control | [7] 114 % of control | [8] 107 % of control | [9] 106 % of control | [10] 98 % of control

CCc1ncnc2cc(OCC3CO3)c(OC)cc12 (centres undefined)
inactive: dose: 6.25 mg/kg/injection, schedule: Q01DX009 (ip), vehicle: suspension in saline 118 % of control | dose: 50.0 mg/kg/injection, schedule: Q01DX009 (ip), vehicle: suspension in saline 117 % of control
